Measurements as given in patent publication US10221177B2 (HYDRA BIOSCIENCES, INC., priority 2014, dated 2019).

Experiments:
[1] = test system: formalin-induced pain behaviors in the rat; assay: Formalin-induced pain test (formalin model), duration of pain behaviors; type: in vivo
Protocol: Exemplary compounds of the invention were tested in the formalin-induced pain test reported by Dubuisson et al., Pain 1977 December; 4(2):161-74 (incorporated herein by reference in its entirety). Briefly, dilute formalin (50 μL of 3% formalin) was injected into the plantar surface of the hind paw of a rat. […] The individual responsible for counting the pain behaviors in a particular study was blinded to the treatment groups.
The initial phase (Phase I: 0-5 min) is thought to have a significant component that is dependent upon direct activation of afferent fibers by formalin and functional TRPA1 (McNamara et al., 2007).
Investigators studied oral administration of compounds of the invention at the doses presented in Table 3 on pain behaviors in the formalin model in the rat. Compounds were formulated as solutions in water with various solvents and excipients including dimethyl sulfoxide (DMSO), polyethylene glycol (15)-hydroxystearate (Solutol®, Sigma-Aldrich), caprylocaproyl macrogol-8 glyceride (Labrasol®, Sigma-Aldrich), polysorbate-80 (Tween®-80, Sigma-Aldrich), and polyoxyl 35 castor oil (Cremophor® EL, BASF Corp.); or suspensions in methylcellulose as indicated in Table 3. Animals were dosed orally with the vehicle, or compounds of the invention one hour prior to intraplantar formalin. […] A decrease over Vehicle indicates a positive result. P values, when indicated, indicate significance compared Vehicle.

human TRPA1 = human TRPA1 (Homo sapiens (Human), UniProt O75762); assay: In vitro inhibition of human TRPA1, whole cell patch configuration; type: cell-based; conditions: current activation 10 μM AITC, tested concentrations 320 pM to 3.2 μM, read-out: hTRPA1 IC50
Outline: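 Whole-cell patch clamp, bath 150 mM NaCl, 10 mM HEPES, 1 mM EGTA, 3 mM MgCl2, pH 7.4 (sometimes 2 mM CaCl2, 1 mM MgCl2). Currents recorded continuously at −60 mV or by 400 ms ramps from −40 mV holding every 4 s; inward/outward currents taken at −80/80 mV, with controlled-temperature focal perfusion.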

[2] = test system: CFA-induced cold hypersensitivity of the hind paw; assay: CFA-induced pain test, cold hypersensitivity (cold plate paw withdrawal latency); type: in vivo; conditions: cold plate 1° C.; for Average PWL Post-Treatment / PWL Change: 1-2 hour pre-treatment; for Average PWL Post-CFA: baseline before dosing
Protocol: Embodiments of the invention may be efficacious in the treatment of inflammatory pain. Compounds of the invention were tested by the CFA-induced pain test method. Compounds were formulated as solutions in water with various solvents and excipients including dimethyl sulfoxide (DMSO), polyethylene glycol (15)-hydroxystearate (Solutol®, Sigma-Aldrich), caprylocaproyl macrogol-8 glyceride (Labrasol®, Sigma-Aldrich), polysorbate-80 (Tween®-80, Sigma-Aldrich), and polyoxyl 35 castor oil (Cremophor® EL, BASF Corp.); or suspensions in methylcellulose as indicated in Table 3 for oral delivery. Briefly, the hind paw was sensitized to cold temperature (allodynic) by administering 0.1 mL of Complete Freund's Adjuvant (CFA) to the right hind paw. Three days later, the time taken for the animal to lift its CFA-injected paw was recorded compared to its un-injected normal left hind paw. […] To avoid tissue damage the maximum cut-off time was 5 minutes. Animals that were allodynic (average PWL to the first three pain behaviors <150 seconds for the CFA-injected hind paw: ˜≥50% difference between the normal and CFA-injected paw) were included in the study and subsequently randomized across treatment groups. The following day, the animals were dosed orally under blinded conditions. Following the 1-2 hour pre-treatment time, the post-dose PWL readings were again taken. The efficacy of the drug treatment was assessed by comparing the PWL in the drug treatment animals to those animals that receive the vehicle. P values, when indicated, indicate significance compared Vehicle.

[3] = 1 mg/kg PO one hour prior to formalin, solution in 4% DMSO, 5% Tween-80, 20% Cremophor EL, 71% water
[4] = 3 mg/kg PO one hour prior to formalin, solution in 4% DMSO, 5% Tween-80, 20% Cremophor EL, 71% water
[5] = 10 mg/kg PO one hour prior to formalin, solution in 4% DMSO, 5% Tween-80, 20% Cremophor EL, 71% water
[6] = 0.3 mg/kg PO, solution in 4% DMSO, 5% Tween-80, 20% Cremophor EL, and 71% water
[7] = 1 mg/kg PO, solution in 4% DMSO, 5% Tween-80, 20% Cremophor EL, and 71% water
[8] = 3 mg/kg PO, solution in 4% DMSO, 5% Tween-80, 20% Cremophor EL, and 71% water
[9] = group 0.3 mg/kg PO, solution in 4% DMSO, 5% Tween-80, 20% Cremophor EL, and 71% water
[10] = group 1 mg/kg PO, solution in 4% DMSO, 5% Tween-80, 20% Cremophor EL, and 71% water
[11] = group 3 mg/kg PO, solution in 4% DMSO, 5% Tween-80, 20% Cremophor EL, and 71% water
[12] = 1 mg/kg PO one hour prior to formalin, suspension in 0.5% methylcellulose
[13] = 3 mg/kg PO one hour prior to formalin, suspension in 0.5% methylcellulose
[14] = 10 mg/kg PO one hour prior to formalin, suspension in 0.5% methylcellulose
[15] = 1 mg/kg PO, suspension in 0.5% methylcellulose
[16] = 3 mg/kg PO, suspension in 0.5% methylcellulose
[17] = 10 mg/kg PO, suspension in 0.5% methylcellulose

human TRPA1, sequence (O75762 whole entry, the tested form may be a part): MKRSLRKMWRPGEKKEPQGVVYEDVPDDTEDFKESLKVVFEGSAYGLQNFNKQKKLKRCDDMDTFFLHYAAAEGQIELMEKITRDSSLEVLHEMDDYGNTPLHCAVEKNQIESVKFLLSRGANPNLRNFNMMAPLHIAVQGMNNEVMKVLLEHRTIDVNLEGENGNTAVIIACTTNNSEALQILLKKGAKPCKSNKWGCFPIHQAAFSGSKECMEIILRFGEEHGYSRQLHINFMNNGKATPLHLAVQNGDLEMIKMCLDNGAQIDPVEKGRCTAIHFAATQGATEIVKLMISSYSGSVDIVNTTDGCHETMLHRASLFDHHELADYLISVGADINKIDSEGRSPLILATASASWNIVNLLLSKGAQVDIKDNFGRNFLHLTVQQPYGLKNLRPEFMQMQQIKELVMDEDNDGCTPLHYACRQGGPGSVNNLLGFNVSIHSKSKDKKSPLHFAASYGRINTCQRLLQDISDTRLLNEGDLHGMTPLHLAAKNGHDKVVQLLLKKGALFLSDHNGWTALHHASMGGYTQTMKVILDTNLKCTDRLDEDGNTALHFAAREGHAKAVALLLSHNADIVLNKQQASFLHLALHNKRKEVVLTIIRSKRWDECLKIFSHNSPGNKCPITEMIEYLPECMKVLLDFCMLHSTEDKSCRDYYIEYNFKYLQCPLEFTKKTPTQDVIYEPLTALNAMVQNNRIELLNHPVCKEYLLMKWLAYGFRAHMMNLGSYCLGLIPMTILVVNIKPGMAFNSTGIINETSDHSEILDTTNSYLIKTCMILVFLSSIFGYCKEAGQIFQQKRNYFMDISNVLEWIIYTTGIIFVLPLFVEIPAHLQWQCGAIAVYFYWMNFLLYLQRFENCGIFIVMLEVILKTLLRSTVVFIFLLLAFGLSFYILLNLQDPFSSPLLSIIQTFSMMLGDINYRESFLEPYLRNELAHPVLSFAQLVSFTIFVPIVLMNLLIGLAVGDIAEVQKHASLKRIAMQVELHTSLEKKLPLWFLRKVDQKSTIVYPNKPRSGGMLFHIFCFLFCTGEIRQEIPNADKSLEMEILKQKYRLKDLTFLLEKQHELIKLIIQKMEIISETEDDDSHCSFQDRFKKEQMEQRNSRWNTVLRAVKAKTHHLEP

Row | Structure (SMILES) | Duration (0-2 Minutes) Average [1, 3] | Duration (0-5 Minutes) Average [1, 3] | Duration (0-2 Minutes) Average [1, 4] | Duration (0-5 Minutes) Average [1, 4] | Duration (0-2 Minutes) Average [1, 5] | Duration (0-5 Minutes) Average [1, 5] | IC50 (human TRPA1) | Average PWL Post-Treatment [2, 6] | PWL Change [2, 6] | Average PWL Post-Treatment [2, 7] | PWL Change [2, 7] | Average PWL Post-Treatment [2, 8] | PWL Change [2, 8] | Average PWL Post-CFA [2, 9] | Average PWL Post-CFA [2, 10] | Average PWL Post-CFA [2, 11] | other results
1 | CC(=O)Cn1c(=O)c2c(ncn2[C@@H](C)C(=O)Nc2cncc(-c3cnc(N4CC5C(C4)C5(F)F)nc3)n2)n(C)c1=O (stereo partly drawn) [Compound 74, (2S)—N-(6-(2-(6,6-difluoro-3-azabicyclo[3.1.0]hexan-3-yl)pyrimidin-5-yl)pyrazin-2-yl)-2-(3-methyl-2,6-dioxo-1-(2-oxopropyl)-2,3-dihydro-1H-purin-7(6H)-yl)propanamide] | 94.8 s | 169.0 s | 78.3 s | 172.9 s | 62.3 s | 152.6 s | 6 nM | 160.9 | 69.9 s | 271.3 | 181.0 s | 273.2 | 182.3 s | 91.1 | 90.4 | 90.9 | 
2 | Cc1noc(Cn2c(=O)c3c(ncn3[C@@H](C)C(=O)Nc3cccc(-c4cnc(C(F)(F)F)nc4)n3)n(C)c2=O)n1 [Compound 104, (S)-2-(3-methyl-1-((3-methyl-1,2,4-oxadiazol-5-yl)methyl)-2,6-dioxo-2,3-dihydro-1H-purin-7(6H)-yl)-N-(6-(2-(trifluoromethyl)pyrimidin-5-yl)pyridin-2-yl)propanamide] | 98.5 s | 167.9 s | 70.9 s | 140.0 s | 56.6 s | 128.9 s | 15 nM | 190.0 | 84.9 s | 295.1 | 190.9 s | 281.7 | 176.8 s | 105.1 | 104.2 | 104.9 | 
3 | CC(=O)Cn1c(=O)c2c(ncn2[C@@H](C)C(=O)Nc2ccnc(-c3cnc(N4CC5C(C4)C5(F)F)nc3)n2)n(C)c1=O (stereo partly drawn) [Compound 61, (2S)—N-(2′-(6,6-difluoro-3-azabicyclo[3.1.0]hexan-3-yl)-[2,5′-bipyrimidin]-4-yl)-2-(3-methyl-2,6-dioxo-1-(2-oxopropyl)-2,3-dihydro-1H-purin-7(6H)-yl)propanamide] | 89.4 s | 149.3 s | 90.3 s | 152.3 s | 52.8 s | 120.0 s | 8 nM | 157.1 | 60.9 s | 235.4 | 139.4 s | 278.5 | 182.7 s | 96.2 | 96.0 | 95.8 | 
4 | CC(=O)Cn1c(=O)c2c(ncn2[C@@H](C)C(=O)Nc2csc(-c3ccc(N4CC5C(C4)C5(F)F)nc3)n2)n(C)c1=O (stereo partly drawn) [Compound 79, (2S)—N-(2-(6-(6,6-difluoro-3-azabicyclo[3.1.0]hexan-3-yl)pyridin-3-yl)thiazol-4-yl)-2-(3-methyl-2,6-dioxo-1-(2-oxopropyl)-2,3-dihydro-1H-purin-7(6H)-yl)propanamide] |  |  |  |  |  |  | 3 nM |  |  |  |  |  |  |  |  |  | Duration (0-2 Minutes) Average [1, 12]: 86.1 s; Duration (0-5 Minutes) Average [1, 12]: 169.8 s; Duration (0-2 Minutes) Average [1, 13]: 86.5 s; Duration (0-5 Minutes) Average [1, 13]: 151.1 s; Duration (0-2 Minutes) Average [1, 14]: 77.3 s; Duration (0-5 Minutes) Average [1, 14]: 142.5 s; Average PWL Post-Treatment [2, 15]: 140.2; PWL Change [2, 15]: 38.0 s; Average PWL Post-Treatment [2, 16]: 201.8; PWL Change [2, 16]: 99.6 s; Average PWL Post-Treatment [2, 17]: 231.5; PWL Change [2, 17]: 129.3 s; Average PWL Post-CFA ([2]; group 1 mg/kg PO, suspension in 0.5% methylcellulose): 102.2; Average PWL Post-CFA ([2]; group 3 mg/kg PO, suspension in 0.5% methylcellulose): 102.2; Average PWL Post-CFA ([2]; group 10 mg/kg PO, suspension in 0.5% methylcellulose): 102.3
5 | CC(=O)Cn1c(=O)c2c(ncn2[C@@H](C)C(=O)Nc2cccc(-c3cnc(C)c(C(F)(F)F)c3)n2)n(C)c1=O [Compound 97, (S)-2-(3-methyl-2,6-dioxo-1-(2-oxopropyl)-2,3-dihydro-1H-purin-7(6H)-yl)-N-(6′-methyl-5′-(trifluoromethyl)-[2,3′-bipyridin]-6-yl)propanamide] | 69.3 s | 162.4 s | 78.5 s | 175.3 s | 56.8 s | 185.4 s | 5 nM | 194.7 | 77.3 s | 262.7 | 149.8 s | 260.8 | 157.3 s | 117.3 | 112.9 | 103.5 | 
6 | Cc1noc(Cn2c(=O)c3c(ncn3[C@@H](C)C(=O)Nc3cncc(-c4cnc(C(F)(F)F)nc4)n3)n(C)c2=O)n1 [Compound 160, (S)-2-(3-methyl-1-((3-methyl-1,2,4-oxadiazol-5-yl)methyl)-2,6-dioxo-2,3-dihydro-1H-purin-7(6H)-yl)-N-(6-(2-(trifluoromethyl)pyrimidin-5-yl)pyrazin-2-yl)propanamide] | 68.6 s | 167.3 s | 78.1 s | 232.0 s | 42.5 s | 150.4 s | 20 nM | 173.0 | 64.7 s | 269.6 | 161.5 s | 253.6 | 146.2 s | 108.2 | 108.1 | 107.5 | 
